Data as given in US5453444A, “Method to mitigate or eliminate weight loss” (Otsuka Pharmaceutical Co., Ltd., priority 1994, dated 1995).
Where “and” joins values, the source holds several entries; their conditions need not be identical. Identical values can stand only once. Entries after “also recorded” stand apart in the source; their conditions may differ. Counter-ions that a name gives are not always drawn.

Key:
[1] = test system: cachexia-inducing action of CF; settings: Silva et al., Infection and Immunity 1988; cited from earlier work
[2] = test system: C-26.IVX cells derived from the colon adenocarcinoma; assay: Suramin blocks C-26 mediated cachexia (Example 1); format: in vivo, mice; settings: 200 mg/kg I.P. d7, 13
Procedure: Eleven male mice (CD)2F1 obtained from Charles Rivers Laboratories were weighed and then were inoculated with 0.5×10^6 C-26.IVX cells derived from the colon adenocarcinoma (by the procedure described in Strassmann et al., J. Clin. Invest., 89, pp. 1681-84 (May 1992) which is incorporated herein by reference). The day of inoculation was identified as day 0 (d0). On days 7 and 13, five of these mice each received intraperitoneally 0.5 ml of PBS (phosphate buffered saline) and the other six mice each received intraperitoneally 200 mg/kg body weight of suramin diluted in 0.5 ml PBS. On day 19, all the mice were sacrificed and the final total weight, the host weight, the tumor weight, epididymal fat, and dry weight were measured.

[3] = test system: C-26 cachexia; assay: Time course of C-26 mediated weight loss and tumor volume (Example 2); format: in vivo, mice; settings: 100 mg/kg intraperitoneally days 7 and 12
Procedure: In subsequent experiments, eight mice obtained from the same source as above were injected with 0.5 ml PBS intraperitoneally and eight other mice from the same source as above were injected with 100 mg/kg body weight of suramin intraperitoneally. The injections were given on days 7 and 12. The weight of the two groups was measured several times a week.

[4] = test system: C-26 cachexia; assay: Dose dependence of C-26 cachexia inhibition (Example 3); format: in vivo, mice; settings: increasing amounts intraperitoneally; day 17; FIG. 3
Procedure: Mice were obtained and injected with C-26 cells as set forth above for Example 1, and then were put into four groups of five mice each. The mice were injected intraperitoneally with increasing amounts of suramin as indicated in FIG. 3 except for the control mice. On day 17, the total weight of each group was compared to a control group of five mice which had been injected with 0.5 ml PBS intraperitoneally.

[5] = test system: turpentine-induced wasting; assay: Turpentine-induced wasting (Example 4); format: in vivo, mice; settings: 100 mg/kg intraperitoneally day -3, 0.1 ml turpentine i.m. day 0, FIG. 4
Procedure: (See Gershenwald et al., "Interleukin 1 receptor blockade attenuates the host inflammatory response" Proc. Natl. Acad. Sci., 87 4966-70, (July, 1990) for a description of the turpentine-induced wasting procedure). In this experiment, three days before day 0 (day -3), five male (CD)2F1 mice, obtained from Charles Rivers Laboratories, each received intraperitoneally 0.5 ml of PBS. Five other mice obtained from the same source each received intraperitoneally 100 mg/kg body weight suramin diluted with 0.5 ml of PBS.

[6] = test system: IL-6; assay: IL-6 dependent proliferation of B-9 cells (3H-thymidine incorporation); format: cell-based; settings: for cpm of 3H-thymidine incorporation, B-9 cells: Table 5
Procedure: A standard proliferation assay, Strassmann et al., J. Immunol., 147:1279-1285 (1991), was conducted using 96 well plates The medium used was RPMI with 10% fetal calf serum B-9 cells were added and were cultured for 3 days. The extent of proliferation of B-9 cells was determined by the incorporation of radioactive thymidine as described in Strassmann et al., J. Clin. Invest., 89, pp. 1681-84 (May 1992). […] (See Strassmann et al., J. Clin. Invest., 89, pp. 1681-84 (May 1992), incorporated herein by reference.)
The same procedures set forth in Example 5 was followed except that a different sulfate-containing compound, Pentosan polysulfate, was used.
The same procedure set forth in Example 5 was followed except in this example, Dextran sulfate and Dextran, were used instead of Suramin.

[7] = test system: IL-6 receptor; assay: Radioreceptor assay: binding of 125I-IL-6 to U266 cells; set-up: species or system human; settings: 90 minutes at 4° C.; increasing amounts of compound
Procedure: This experiment analyzed whether suramin inhibits IL-6 bioactivity by interfering with binding to the IL-6 receptor. Into eighteen test tubes was placed U266 indicator cells (obtained from ATCC), a binding buffer, made up of RPMI medium, 0.1 mg BSA and […] Hepes, and 100,000 cpm (0.8 ng) of ^125 I-IL-6. The tubes were divided into six groups of three tubes each and received suramin as follows: group 1 had 300 uM suramin; group 2 had 100 uM suramin; group 3 had 30 uM suramin; group 4 had 10 uM suramin; and group 5 had no suramin, but only medium (control for maximal binding). In addition, group 6 received excess unlabeled IL-6 without suramin for use in determining the background of binding in this assay.
After 90 minutes of incubation at 4° C. and the centrifugation of cells on oil (a standard radioreceptor assay) Strassmann, J. Immunol., 147:1279-1289 (1991), the amount of radioactivity bound to the cells was determined. […] Also, the addition of increasing amounts of suramin prevented the binding of radioactive IL-6 to U266 human myeloma indicator cells in vitro as reflected in the results set forth in FIG. 6.
The same procedure set forth in Example 6 was followed, except that Pentosan polysulfate was used instead of Suramin.

[8] = test system: 125I-IL-6; assay: 125I-IL-6 sequestration in vivo (liver, kidney, spleen radioactivity); set-up: species or system mice; settings: for Kidney radioactivity / Liver radioactivity / Spleen radioactivity: 5 mg/mouse, mean ± 0.5 range of 2 mice
Procedure: The ability to prevent binding of IL-6 in vivo was analyzed as follows. Eight mice received 5.0 mg/mouse of suramin intravenously and eight other mice received 0.2 ml PBS/mouse intravenously 0.5 hour. Thereafter, all sixteen of the mice received an injection of 300,000 cpm (2.4 ng) of ^125 I-IL-6. Four mice from each group were sacrificed 30 minutes after receiving the ^125 I-IL-6 and the remaining four mice from each group were sacrificed 60 minutes after receiving the ^125 I-IL-6. The liver, kidney, and spleen were removed and measured for radioactivity (cpm).

[9] = 5.0 mg/mouse intravenously 0.5 hour before 125I-IL-6

In the case of `C[C@@H]1C[C@H]2[C@@H]3CCC4=CC(=O)C=C[C@]4(C)[C@@]3(F)[C@@H](O)C[C@]2(C)[C@@]1(O)C(=O)CO` [Dexamethasone], the “cachexia-inducing action of CF” value [1] is listed as “partially inhibit the cachexia-inducing action of CF”.

For `Cc1ccc(C(=O)Nc2ccc(S(=O)(=O)O)c3cc(S(=O)(=O)O)cc(S(=O)(=O)O)c23)cc1NC(=O)c1cccc(NC(=O)Nc2cccc(C(=O)Nc3cc(C(=O)Nc4ccc(S(=O)(=O)O)c5cc(S(=O)(=O)O)cc(S(=O)(=O)O)c45)ccc3C)c2)c1` [Suramin, 8-8'-[Carbonylbis[imino-3,1-phenylenecarbonylimino(4-methyl-3,1-phenylene)carbonylimino]]bis-1,3,5-naphthalenetrisulfonic acid hexasodium salt], the “% weight loss” value ([2]; d19, individual mouse) was 5.3% and 17.6% and 10.5% and 15.4% and 18.6% and 5.1%, the Dry wt ([2]; d19, individual mouse) was 7.8 g and 6.5 g and 6.6 g and 6.4 g and the Final total wt. ([2]; d19, individual mouse) was 25.9 g and 25.2 g and 26.2 g and 25.5 g and 25.4 g and 27.4 g. The “Host's wt.” value ([2]; d19, individual mouse) was 25.0 g and 23.3 g and 24.2 g and 23.5 g and 23.1 g and 25.8 g, the IL-6 ([2]; d19, individual mouse) was 292 U/ml and 360 U/ml and 310 U/ml and 535 U/ml and 477 U/ml and 328 U/ml and the “Serum Glucose” value ([2]; d19, individual mouse) was 128 mg/dL and 114 mg/dL and 100 mg/dL and 110 mg/dL and 109 mg/dL and 116 mg/dL. The Tumor wt ([2]; d19, individual mouse) was 0.93 g and 1.98 g and 2.08 g and 1.96 g and 2.36 g and 1.64 g, the “% weight loss” value ([2]; d19, mean ±SD of six mice) was 12.0% and the Dry wt ([2]; d19, mean ±SD of six mice) was 6.7 ± 0.5 g. The “Host's wt.” value ([2]; d19, mean ±SD of six mice) was 24.2 g, the IL-6 ([2]; d19, mean ±SD of six mice) was 384 U/ml and the “Serum Glucose” value ([2]; d19, mean ±SD of six mice) was 113 ± 9 mg/dL. The Tumor wt ([2]; d19, mean ±SD of six mice) was 1.82 g, the “% weight loss” value ([2]; d19, mean ±SD of six mice, listed as suramin) was 12.0±6.0% and the Final total wt. ([2]; sacrificed d19, mean ±SD of six mice) was 26.9 ± 0.8 g. For the same compound, the “C-26 mediated weight loss over time” value ([3]; FIG. 1) was “inhibited C-26 mediated weight loss in a significant time dependent manner; also recorded: time dependent inhibition of C-26 cachexia”, the “tumor (C-26) growth in vivo (tumor volume)” value ([3]; FIG. 2) was “no significant effect on the tumor (C-26) growth in-vivo except on day 19; also recorded: lack of effect” and the “percentage of weight loss (wasting) versus dose” value [4] was “inhibited wasting in a dose dependent manner; also recorded: dose dependent inhibition of C-26 cachexia”. For the same compound, the turpentine-induced weight loss [5] was “exhibited no such weight loss; also recorded: prevention of turpentine-induced wasting”, the “bioactivity of IL-6 (proliferation of B-9 cells)” value ([6]; preincubated with IL-6, 3 days culture, FIG. 5) was “inhibits the bioactivity of IL-6; also recorded: inhibition of bioactivity of IL-6” and the “binding of radioactive IL-6 to U266 cells” value [7] was “prevents binding of the IL-6 to the U266 cells in a dose dependent manner; also recorded: prevention of the binding of IL-6 to human myeloma cells”. For the same compound, the “less radioactivity measured in the liver versus PBS” value [8, 9] was “approximately 50%”, the “radioactive IL-6 present in the kidney” value [8, 9] was “increase of radioactive IL-6 present in the kidney” and the Kidney radioactivity ([8]; Expt. 1, 30 minutes) was 70151 ± 125 cpm. For the same compound, the Liver radioactivity ([8]; Expt. 1, 30 minutes) was 8385 ± 1525 cpm/gm, the Spleen radioactivity ([8]; Expt. 1, 30 minutes) was 1347 ± 295 cpm and the Kidney radioactivity ([8]; Expt. 1, 60 minutes) was 36595 ± 1760 cpm. The Liver radioactivity ([8]; Expt. 1, 60 minutes) was 4275 ± 91 cpm/gm, the Spleen radioactivity ([8]; Expt. 1, 60 minutes) was 630 ± 6 cpm and the Kidney radioactivity ([8]; Expt. 2, 30 minutes) was 57287 ± 2849 cpm. It also gave a Liver radioactivity ([8]; Expt. 2, 30 minutes) of 9277 ± 235 cpm/gm, a Spleen radioactivity ([8]; Expt. 2, 30 minutes) of 1306 ± 4 cpm and a Kidney radioactivity ([8]; Expt. 2, 60 minutes) of 38254 ± 466 cpm. It also gave a Liver radioactivity ([8]; Expt. 2, 60 minutes) of 5512 ± 379 cpm/gm and a Spleen radioactivity ([8]; Expt. 2, 60 minutes) of 631 ± 25 cpm.

With Dextran the “cpm of 3H-thymidine incorporation, B-9 cells” value (shortened to “cpm”) ([6]; compound 30 μM, IL-6 3 pg/ml) was 24007 cpm, the “cpm” value ([6]; compound 30 μM, IL-6 10 pg/ml) was 143003 cpm and the “cpm” value ([6]; compound 30 μM, IL-6 30 pg/ml) was 231856 cpm. The “cpm” value ([6]; compound 100 μM, IL-6 3 pg/ml) was 29577 cpm, the “cpm” value ([6]; compound 100 μM, IL-6 10 pg/ml) was 136191 cpm and the “cpm” value ([6]; compound 100 μM, IL-6 30 pg/ml) was 230321 cpm. The “cpm” value ([6]; compound 300 μM, IL-6 3 pg/ml) was 27015 cpm, the “cpm” value ([6]; compound 300 μM, IL-6 10 pg/ml) was 140903 cpm and the “cpm” value ([6]; compound 300 μM, IL-6 30 pg/ml) was 245701 cpm. For the same compound, the “proliferation of B-9 cells in response to IL-6” value ([6]; result in words) was “did not prevent the proliferation of B-9 cells in response to IL-6”.
